According to article PMC5510229, “BCAT1 controls metabolic reprogramming in activated human macrophages and is associated with inflammatory diseases” (Nature Communications, 2017):

System: human monocyte-derived macrophages (hMDMs)
Experiment: Itaconate and citrate measurement by GC/MS in hMDMs
Format: cell-based
Experimental: Figure 1 BCAT1 expression and inhibition in human macrophages. […] (b) Chemical structure of ERG240 and leucine. (c) Enzymatic activity of recombinant human BCAT1 and BCAT2 in presence of ERG240. (d) Relative expression of IRG1, HIF1A and IL1B measured by qRT-PCR in control, ERG240-treated (20 mM, 3 h), LPS treated (100 ng ml^−1, 3 h), and LPS+ERG240 treated (LPS, 100 ng ml^−1; ERG240, 20 mM for 3 h) hMDMs. ns, non-significant. All expression values are normalized to those obtained for HPRT gene expression. n=3 healthy donor hMDMs were used in each group. […]
For itaconate, cells pellets containing 1.5 × 10^6 hMDMs were quenched with 400 μl of methanol, previously chilled at −20 °C. […] After a brief centrifugation, derivatized metabolites were transferred into clean GC/MS vials and analysed for the presence of itaconic acid (itaconate) using a 7890A GC System (Agilent Technologies) equipped with an Agilent J&W DB-5ms column (30 m, 0.25 mm, 0.25 μm), connected to an 5975C Triple-Axis MS Detector (Agilent Technologies) and outfitted with an autosampler. […] The amount of itaconate present in the sample was determined after peak integration. […] The GC/MS was performed by Biocrates (BIOCRATES Life Sciences AG, Innsbruck, Austria) and the citrate quantification was performed using their commercially available Kit plates, according to the manufacturer’s instructions. […]

CC(=O)C(C)CCC(=O)O (centres unmarked) [ERG240]
citrate levels by GC/MS (LPS 3 h 100 ng/ml + ERG240 vs LPS): further significantly increased | itaconate levels measured by GC/MS (LPS 8 h 100 ng ml^−1, ERG240 20 mM): decreased itaconate levels
